We go through 16 molecules from BindingDB's records for doi:10.1021/jm00089a016 (Abbott Laboratories, 1992).

Molecules are shown by their SMILES. pKi: −log10 of the molar value.

The nature of the experiment: In vitro intrinsic binding affinity at platelet activating factor receptor using rabbit platelet membranes.

Usually pKi stands for −log10 of the Ki, conventionally taken in molar units. `COc1cc(C(C)CCCc2ccc(F)cc2)cc2c1C1=C(CCN(Cc3ccccn3)C1)C(C)(C)O2` (stereo unspecified) had a pKi of 5.38. `CC1CSC2=C1c1c(O)cc(C(C)CCCc3ccc(F)cc3)cc1OC2(C)C` (stereo unspecified) gave a pKi of 4.36. In turn, `CNC(=O)CN(C)CC1=CC(C)(C)Oc2cc(C(C)CCCc3ccc(F)cc3)cc(O)c21` (stereo unspecified) had a pKi of 5.80.

The molecule `COc1cc(C(C)CCCc2ccc(F)cc2)cc2c1C1=C(CCN(CCCCCC(=O)O)C1)C(C)(C)O2` (stereo unspecified) had a pKi of 4.60.

Take `COc1cc(C(C)CCCc2ccc(F)cc2)cc2c1C1=C(CCN(CCCCC(=O)O)C1)C(C)(C)O2` (stereo unspecified): the pKi was 5.26.

`COc1cc(C(C)CCCc2ccc(F)cc2)cc2c1C1=C(CCN(CCC(=O)O)C1)C(C)(C)O2` (stereo unspecified) gave a pKi of 5.36. The same measure for `C#CCN1CCC2=C(C1)c1c(O)cc(C(C)CCCc3ccc(F)cc3)cc1OC2(C)C` (stereo unspecified): 5.49. Molecule `CNC(=O)CN1CCC(C(C)(C)O)=C(c2c(O)cc(C(C)CCCc3ccc(F)cc3)cc2O)C1` (stereo unspecified) showed a pKi of 4.63. Then `CCCCCC(C)C(C)c1cc(O)c2c(c1)OC(C)(C)C1=C2CN(CC(=O)NC)CC1` (stereo unspecified), with 5.43. In turn, `CNC(=O)CN1CCC2=C(C1)c1c(OCC(=O)O)cc(C(C)CCCc3ccc(F)cc3)cc1OC2(C)C` (stereo unspecified) gave a pKi of 6.03. Then `CNC(=O)CN1CCC2=C(C1)c1c(OC)cc(C(C)CCCc3ccc(F)cc3)cc1OC2(C)C` (stereo unspecified), with 6.85.

`CC(CCCc1ccc(F)cc1)c1cc(O)c2c(c1)OC(C)(C)C1=C2CN(CC(=O)N(C)C)CC1` (stereo unspecified): the pKi was 4.80.

On to `CNC(=O)CN1CCC2=C(C1)c1c(O)cc(C(C)CCCc3ccc(F)cc3)cc1OC2(C)C` (stereo unspecified), for which the pKi is 6.48.

`CC(CCCc1ccc(F)cc1)c1cc(O)c2c(c1)OC(C)(C)C1=C2CN(C(=O)CO)CC1` (stereo unspecified) showed a pKi of 4.69.

In turn, `CNC(=O)CN1CCC2=C(C1)c1c(O)cc(C(C)C)cc1OC2(C)C` gave a pKi of 5.05.

In turn, `CNC(=O)CCCN1CCC2=C(C1)c1c(O)cc(C(C)CCCc3ccc(F)cc3)cc1OC2(C)C` (stereo unspecified) gave a pKi of 4.68.
